The source of these data is patent US20240331158A1, “CELL PAINTING AND ANALYSIS IN 3D CELLULAR MODELS” (priority 2023, published 2024).

Assay [1] deals with TU-BcX-4IC 3D cultures. In words: Imaging read-out, 3D culture. The note with it: Homo sapiens, 120 h, read-out: EC50, Imaging 3D.
Procedure: (§1) Cell metabolism may be measured by ATP level as another readout for effects of anti-cancer drugs that is related to cytotoxicity. In the present examples, a subset of 12 compounds were used for evaluation of compound effects, using the CellTiter-Glo 3D assay (Promega), which detects ATP levels. Compounds may be tested using 7 point 5× dilutions starting from 100 uM. In the present examples, compound effects on 2D culture and 3D cultures were compared, using imaging and CellTiter-Glo 3D methods. Cultures were set up in parallel, using same cell number (2000). Cultures were allowed to grow for 48 hours, then treated with compounds for 5 days.
(§2) Images were analyzed using MetaXpress Software (Molecular Devices). Count Nuclei or Cell Scoring application modules were used for nuclear count live/dead assessment, or evaluation of cell number positive for specific markers. Output measurements included spheroid width, spheroid area, average intensity for calcein AM or EthD-III, counts of all nuclei, and evaluation of average nuclear size and average intensities. In addition, calcein AM-positive cells were counted, and their area and intensity values were recorded. In addition to cell count, areas and intensities could be determined for live (EthD-III negative) and dead (EthD-III positive) cells.
The test system of assay [2] is TU-BcX-4IC 2D culture. In words: Imaging read-out, 2D culture. The note with it: Homo sapiens, 120 h, read-out: EC50, Imaging 2D.
Procedure: as §1, §2
The test system of assay [3] is TU-BcX-4IC tumoroids. In words: Secondary follow-up 3D assay, 7-point concentration curves, tumoroid disintegration measurement. The format is cell-based, human. The note with it: Homo sapiens, TU-BcX-4IC, 120 h. Here is the method:
10 compounds, including panobinostat, carfilzomib, and bortezomib were tested across 7 concentrations in the 1-10000 nM range. Spheroids were treated for 5 days with these compounds, then stained as described above (FIG. 4). […] EC50 values (Table 2) were determined using tumoroid disintegration measurement (nuclear count in projection images).
Automated staining of spheroids was performed for one hour. After staining, dye solution was replaced with 1×PBS.

The subject of assay [4] is TU-BcX-4IC tumoroids. Put plainly: Library screening of NCI approved anti-cancer drugs: tumoroid integrity/disintegration by nuclear count in projection images (viability/spheroid disintegration assay). The note with it: for minimal effective concentration: Homo sapiens, TU-BcX-4IC, 120 h, read-out: Effective concentration, 3D tumoroids, 5 days treatment, tumoroid integrity by nuclear count, tested at 10 nM to 100 uM; for Viability HIT?: also hit in viability/spheroid disintegration assay, 10 μM.
Procedure: In addition, positive and negative controls were included in the test plates.
During incubation with compounds, tumoroids were monitored daily using TL imaging. Image analysis allowed characterization of tumoroid size, diameter, compactness, and integrity, as well as optical density (FIG. 2B, FIG. 7). Images of tumoroids were taken prior to compound treatment, and during day 3 and day 5 of compound treatment. For the end point assay, tumoroids were stained with viability and nuclear dyes on day 5 of compound treatment. Cells were stained with a combination of Hoechst, calcein AM, and Ethidium Homodimer III (EthD-III) and analyzed using high content imaging for complex phenotypic analysis; a subset of plates was set aside for additional assays including Cell Painting.
Images of organoids were taken with a 10× objective using Z-stack with a step size of 8 mm. Nuclei, live cells, and dead cells of stained cells were detected using DAPI, FITC, and TexasRed channels respectively. Maximum projection images were created from Z-stacks and analyzed as described in Methods. Multiple read-outs were generated characterizing spheroid area, diameter, intensities, and cell viability. In addition, cells inside each spheroid were counted using a nuclear stain. […] Suspended cells were plated into U-shape 384 well plates using a Biomek i7 automated liquid handler, incubated for 48 hours, and then treated with compounds, stained, and imaged. The protocols for compound additions, media, and staining included gentle media dispensing processes. Consecutively, tumoroids were cultured and monitored by automated imaging. Additionally, use of a collaborative robot enabled moving plates from the incubator to the imaging system, where transmitted light imaging or fluorescent imaging protocols were initiated.
For screening the compound library, maximum projection images may be employed. Spheroid disintegration is visible as an increase of spheroid size, in contrast to nicely shaped, round images of intact spheroids. Tumoroid disintegration can be described by several measurements: for example, increase in organoid area/diameter. Most accurate measurements may be done by counting cells or nuclei inside organoids using maximum projection images. […] Disintegrated tumoroids are made up of cells which are not held together in a tight aggregate but instead are loosely piled up in the well bottom resulting in 1) an increased projected area and 2) an increase in nuclear count in the projection images.
Simple nuclei count analysis in projection images was used as a reliable surrogate marker for organoid integrity/dis-integration.

Assay [5] relates to TU-BcX-4IC 2D culture. Put plainly: CellTiter-Glo 3D ATP assay, 2D culture. The note with it: for EC50: Homo sapiens, TU-BcX-4IC, 120 h, read-out: EC50, ATP 2D. (ATP-based viability assays read luminescence as a measure of living cells.)
Procedure: (§3) Cell metabolism may be measured by ATP level as another readout for effects of anti-cancer drugs that is related to cytotoxicity. […] Compounds may be tested using 7 point 5× dilutions starting from 100 uM. In the present examples, compound effects on 2D culture and 3D cultures were compared, using imaging and CellTiter-Glo 3D methods. Cultures were set up in parallel, using same cell number (2000). Cultures were allowed to grow for 48 hours, then treated with compounds for 5 days.
In assay [6] the test system is TU-BcX-4IC 3D cultures. Put plainly: CellTiter-Glo 3D ATP assay, 3D culture. The note with it: for EC50: Homo sapiens, TU-BcX-4IC, 120 h, read-out: EC50, ATP 3D.
Procedure: as §3
Assay [7] relates to TU-BcX-4IC tumoroids. In words: Cell Painting assay adapted for 3D tumoroids, phenotypic distance score and cluster analysis. The note with it: 10 μM, phenotypic distance relative to DMSO controls.
Procedure: For phenotypic profiling, the tumoroids were treated with a single 10 μM concentration of compound, using the methods described above. Notable changes in the staining protocol included increased times for dye incubation, fixation, and permeabilization. […] Images were acquired with Z-stacks using 20× magnification, and the analysis was carried out on projection (maximum) images.
Unlike the previous analysis that included cell count or live-dead evaluation, multiple read-outs may be collected from the whole spheroid to form their phenotypic profile. […] Instead, the spheroid images may also acquired in transmitted light (bright field), and these images may be used to identify the spheroid structures using a deep learning-based image segmentation approach which may improve the analysis. Features extracted from each spheroid may include object morphologies, intensities, and texture measurements for, e.g., the six cell stains and bright field images.
To determine hits from the assay, a phenotypic distance score may be calculated based on the PCA (principal component analysis) components.
This score is a measure of the phenotypic effect of the compounds on the tumoroids relative to the controls. All hits may then be clustered based on their phenotypic profiles using the normalized principal component scores.
To image the organoids labeled with the cell painting dyes, the ImageXpress Confocal HT.ai system, equipped with a laser light source, was used for image acquisition. The confocal mode (pinhole size 60 μm) was used to image organoids with a 20× Plan Apo Lambda, NA 0.75 objective, with z-stacking enabled (5p m step size). The maximum projection image was selected in the acquisition setup.
Images were analyzed using MetaXpress Software (Molecular Devices). […] For the Cell Painting analysis, image analysis was done in the IN Carta image analysis software. To segment the organoids, a deep learning-based model was created based on the TL channel to segment individual organoids. Following segmentation, measurements that include intensity, shape, area, and texture were extracted from all 6 fluorescent channels. In total, 210 analytical features were obtained from each organoid.
The plate was first incubated with MitoTracker DeepRed (500 nM) for 2 hours. The samples were fixed with 4% paraformaldehyde (PFA) in HBSS for 60 minutes. All wash steps were carried out by exchanging half the volume in each well with HBSS to minimize displacement of the organoids from the center of the well.
Measurements from IN Carta were exported as a CSV file and uploaded into StratoMineR (Core Life Analytica), a web-based data analytics platform for hit picking and phenotypic clustering.
Assay [8] deals with TU-BcX-4IC tumoroids. In words: Label-free transmitted light imaging of tumoroids, deep learning segmentation (IN Carta). The assay is classed as cell-based, human. The note with it: 10 uM, 5 days, no staining, 10× objective. Here is the method:
Images were analyzed using SYNAP module of InCartasoftware (Molecular Devices). Analysis mask shown in yellow.
A deep learning-based segmentation (IN Carta Image Analysis Software) approach was used to find all tumoroid objects in transmitted light, either intact or affected. Following segmentation and data extraction, a machine learning tool was utilized to classify all tumoroids into intact, intermediate or severely affected categories. Affected tumoroids were flagged by increase in the object areas (criteria were set as AVERAGE 2*STDEV from the DMSO-treated), allowing detection of effective compounds (FIG. 7, Table 6). An advantage of this method is that compound effects could be interrogated in a label-free manner during multiple time points. However, the analysis allowed some ambiguity in determining accurate areas of the objects, especially when the phenotypic changes were weak or moderate (FIG. 7). The endpoint fluorescent imaging and analysis enabled more robust measurements and compound selection (Tables 5 and 6).
Transmitted light (TL) and fluorescent (FL) images were acquired on the ImageXpress Confocal HT.ai High-Content Imaging System (Molecular Devices) and images analyzed using MetaXpress High-Content Image Analysis Software. Tumoroid images were acquired in TL with approximately 60 μm offset. Zstack images were acquired with the 10× objectives using confocal mode. Best focus projection images were used for TL analysis, and maximum projection images were used for FL analysis. MetaXpress Software or IN Carta Image Analysis Software was used for analysis.

Where [9] appears, read: 3D assay, 7-point concentration curves, 5 days, nuclear count in projection images, read-out: EC50.

Where a name gives a salt, the structure may show the parent alone. Read-outs that look alike come from different tables or passages of the source.

As a reminder, the EC50 is the concentration giving half of the maximal effect. For the compound `CC(C)C[C@H](NC(=O)[C@H](Cc1ccccc1)NC(=O)c1cnccn1)B(O)O` [Bortezomib], the EC50 in the assay with TU-BcX-4IC 3D cultures [1] is 70 nM; in the assay on TU-BcX-4IC 2D culture [2], 10 nM; in the assay with TU-BcX-4IC tumoroids [3] (setting [9]), 17 nM; with TU-BcX-4IC 2D culture [5] it was 10 nM; with TU-BcX-4IC 3D cultures [6], 15 nM. Besides, the minimal effective concentration in the assay with TU-BcX-4IC tumoroids [4] turned out to be 0.01 µM. For the same compound, in the assay with TU-BcX-4IC tumoroids [4] (library screen, tumoroid integrity by nuclear count), the “Efficacy at low concentrations” value is given as “efficacy at low concentrations”.
With `CC(C)C[C@H](NC(=O)[C@H](CCc1ccccc1)NC(=O)CN1CCOCC1)C(=O)N[C@@H](Cc1ccccc1)C(=O)N[C@@H](CC(C)C)C(=O)[C@@]1(C)CO1` [Carfilzomib], the EC50 with TU-BcX-4IC 3D cultures [1] was 73 nM; with TU-BcX-4IC 2D culture [2], 1050 nM; in the assay on TU-BcX-4IC 2D culture [5], 1040 nM; in the assay on TU-BcX-4IC 3D cultures [6], 5820 nM. Also, the “Distance Score” value in the assay with TU-BcX-4IC tumoroids [7] is listed as 5.007. Also, the “Viability HIT?” value in the assay with TU-BcX-4IC tumoroids [4] is given as “no”.
For the compound `COc1c(OCCCN2CCOCC2)ccc2c1N=C(NC(=O)c1cnc(N)nc1)N1CCN=C21` [Copanlisib tris-HCl], the EC50 in the assay on TU-BcX-4IC tumoroids [3] (setting [9]) was 28 nM. The “Distance Score” value in the assay with TU-BcX-4IC tumoroids [7] came to 5.147. Further, in the assay with TU-BcX-4IC tumoroids [4], the minimal effective concentration amounted to 0.1 µM and the “Viability HIT?” value was “yes”. The “Tumoroids effected by compound in transmitted light images” value (“Tumoroids effected by compound” for short) with TU-BcX-4IC tumoroids [8] was “effected by compounds”.
On to `O=C1c2c(O)ccc(O)c2C(=O)c2c(NCCNCCO)ccc(NCCNCCO)c21` [Mitoxantrone], for which the “Distance Score” value with TU-BcX-4IC tumoroids [7] was 6.688. Further, the “Viability HIT?” value with TU-BcX-4IC tumoroids [4] is on record as “yes”. Also, the “Tumoroids effected by compound” value with TU-BcX-4IC tumoroids [8] was “effected by compounds”.
As to `Cc1[nH]c2ccccc2c1CCNCc1ccc(/C=C/C(=O)NO)cc1` [Panobinostat], the EC50 with TU-BcX-4IC 3D cultures [1] was found to be 141 nM; in the assay on TU-BcX-4IC 2D culture [2], 6 nM; in the assay on TU-BcX-4IC tumoroids [3] (setting [9]) it was 54 nM; with TU-BcX-4IC 2D culture [5], 46 nM; with TU-BcX-4IC 3D cultures [6], 84 nM.
`C/C=C1\NC(=O)[C@H]2CSSCC/C=C/[C@H](CC(=O)N[C@H](C(C)C)C(=O)N2)OC(=O)[C@H](C(C)C)NC1=O` [Romidepsin]: the EC50 with TU-BcX-4IC 3D cultures [1] is below 10 nM; with TU-BcX-4IC 2D culture [2], around 10 nM; in the assay on TU-BcX-4IC tumoroids [3] it was 36 nM; in the assay on TU-BcX-4IC 2D culture [5] it was around 10 nM; in the assay with TU-BcX-4IC 3D cultures [6] it was around 10 nM.
Take `CO[C@H]1C[C@@H]2CC[C@@H](C)[C@@](O)(O2)C(=O)C(=O)N2CCCC[C@H]2C(=O)O[C@H]([C@H](C)C[C@@H]2CC[C@@H](OC(=O)C(C)(CO)CO)[C@H](OC)C2)CC(=O)[C@H](C)/C=C(\C)[C@@H](O)[C@@H](OC)C(=O)[C@H](C)C[C@H](C)/C=C/C=C/C=C/1C` [Temsirolimus]: the EC50 with TU-BcX-4IC 3D cultures [1] was 8520 nM. Moreover, the EC50 with TU-BcX-4IC 2D culture [2] came to 10000 nM. Further, the “Distance Score” value with TU-BcX-4IC tumoroids [7] was determined as 5.699. Besides, in the assay with TU-BcX-4IC tumoroids [4], the minimal effective concentration came out at 1 µM and the “Viability HIT?” value is “no”. Further, in the assay with TU-BcX-4IC 2D culture [5] (2D culture, 2000 cells, 5 days treatment, CellTiter-Glo 3D), the “EC50, ATP 2D” value is listed as “no fit”. Also, the “EC50, ATP 3D” value in the assay on TU-BcX-4IC 3D cultures [6] (3D culture, 2000 cells, 5 days treatment, CellTiter-Glo 3D) is listed as “no fit”.
For `CC(=O)Nc1cccc(-n2c(=O)n(C3CC3)c(=O)c3c(Nc4ccc(I)cc4F)n(C)c(=O)c(C)c32)c1` [Trametinib], the EC50 in the assay on TU-BcX-4IC 3D cultures [1] is 8820 nM; in the assay on TU-BcX-4IC 2D culture [2] it was 6270 nM; in the assay with TU-BcX-4IC tumoroids [3] (setting [9]) it was 70 nM; in the assay on TU-BcX-4IC 2D culture [5], 7330 nM; with TU-BcX-4IC 3D cultures [6], 2620 nM.
On to `COc1cccc2c1C(=O)c1c(O)c3c(c(O)c1C2=O)C[C@@](O)(C(=O)CO)C[C@@H]3O[C@H]1C[C@H](N)[C@H](O)[C@H](C)O1` [doxorubicin], for which, in the assay on TU-BcX-4IC tumoroids [4] (3D tumoroids, 5 days), the “Nuclear count in projection images (qualitative)” value is listed as “decrease in counted nuclei”. Moreover, the “Tumoroids effected by compound” value in the assay on TU-BcX-4IC tumoroids [8] was “effected by compounds”.
With `COc1cc(OC)cc(N(CCNC(C)C)c2ccc3ncc(-c4cnn(C)c4)nc3c2)c1` [erdafitinib], the “Tumoroids effected by compound” value in the assay with TU-BcX-4IC tumoroids [8] is “effected by compounds”.
